Source: patent US3954814A, “Alkadienylcyclopropanecarboxylates” (Sumitomo Chemical Company, Limited, priority 1971, dated 1976)
In brackets after ≈: the same amount, converted by molar mass.

Columns and labels:
Assay type in all cases: in vivo
house flies = test: Campbell's turn table oil spray test on house fly adults (Experimental Example 1); conditions: Musca domestica, 24 h, oil spray 5 ml, 10 min exposure, mortality after 1 day, read-out: LC50 (50 percent lethal concentration)
Description: The present compounds (1), (4), (8), (10), (14), (15), (20), (22), (32), (36), (38), (41), (44), (48), (50), (51), (52), (53), (61), (66), (68), (72), (73), (78), (80), (81), (90), (93) and (96), and chrysanthemic acid esters and pyrethric acid esters corresponding thereto were individually formulated by use of deodorized kerosene into oil sprays of various test concentrations.
Using the Campbell's turn table [disclosed in "Soap & Sanitary Chemicals," Vol. 14, No. 6, page 119 (1938)], 5 ml. of each of the oil sprays was sprayed. When 20 seconds had elapsed after the spraying, the shutter was opened, and adults of house flies (a group of about 100 flies) were exposed to the settling mist for 10 minutes and then transferred to an observation cage.
The above operation was repeated several times to measure the LC50 (50 percent lethal concentration) of each compound.

rice stem borer larvae = test: micro dropping (topical) test on hibernating rice stem borer larvae (Experimental Example 3); conditions: topical in acetone, head and tail of larvae, 3 days
Text: The present compounds (1), (4), (8), (10), (14), (15), (22), (32), (36), (38), (41), (44), (48), (50), (51), (52), (53), (61), (66), (68), (72), (73), (80), (81), (90) and (93) and chrysanthemic acid esters corresponding thereto were individually dissolved in acetone to prepare insecticides of various concentrations. Using a micro dropping means, each of the insecticides was dropped to the head and tail of hibernating rice stem borer larvae.

[1] = test system: Northern house mosquitoes; test: knock-down test of oil sprays on Northern house mosquito adults in (70 cm)^3 glass chamber (Experimental Example 2)
Description: The present compounds (1), (6), (20), (22), (23), (25), (27), (29), (30), (31), (39), (42), (43), (45), (49), (53), (56), (62), (64), (78), (81), (83), (85), (87), (88) and (89), and chrysanthemic acid esters and pyrethric acid esters corresponding thereto were individually formulated by use of deodorized kerosene into oil sprays of various test concentrations.
About 20 adults of Northern house mosquitoes were liberated in a (70 cm)^3 glass chamber, and 0.7 ml. of each of the oil sprays was sprayed into the chamber under a pressure of 1.5 kg/cm^2 by use of a glass atomizer. Subsequently, the number of knocked-down mosquitoes was counted to calculate the KT50 (50 percent knock down time) of each compound.

[2] = concentration of oil spray 0.2%
[3] = concentration of oil spray 0.1%

| SMILES | LC50 (house flies) [µg/mL] | LD50 (50 percent lethal dose) (rice stem borer larvae) | KT50 (50 percent knock down time) [1, 2] [s] | KT50 (50 percent knock down time) [1, 3] [s] |
| --- | --- | --- | --- | --- |
| C=CCc1cc(C)c(COC(=O)C2C(C=C(C)C)C2(C)C)c(C)c1 (centres unmarked) [2,6-Dimethyl-4-allylbenzyl chrysanthemate, reference compound] | 650 (≈ 1990 µM) | 0.35 γ/larva |  |  |
| CC(C)=CC1C(C(=O)OCc2cccc(Cc3ccccc3)c2)C1(C)C (centres unmarked) [3-Benzylbenzyl chrysanthemate, reference compound] | 270 (≈ 775 µM) | 1.20 γ/larva |  |  |
| CC(C)=CC1C(C(=O)OCC=C(Cl)Cc2ccccc2)C1(C)C (centres unmarked) [3-Chloro-4-phenyl-2-butene-1-yl chrysanthemate, reference compound] | 360 (≈ 1080 µM) | 0.68 γ/larva |  |  |
| CC(C)=CC1C(C(=O)OCc2cccc(Oc3ccccc3)c2)C1(C)C (centres unmarked) [3-Phenoxybenzyl chrysanthemate, reference compound] | 170 (≈ 485 µM) | 0.72 γ/larva |  |  |
| CC(C)=CC1C(C(=O)OCc2cc3c(o2)CCCC3)C1(C)C (centres unmarked) [4,5-Tetramethylenefurfuryl chrysanthemate, reference compound] | 160 (≈ 529 µM) | 0.75 γ/larva |  |  |
| C#CCc1ccc(COC(=O)C2C(C=C(C)C)C2(C)C)cc1 (centres unmarked) [4-Propargylbenzyl chrysanthemate, reference compound] | 850 (≈ 2870 µM) | 0.99 γ/larva |  |  |
| COC(=O)C(C)=CC1C(C(=O)OCc2coc(Cc3ccccc3)c2)C1(C)C (centres unmarked) [5-Benzyl-3-furylmethyl pyrethrate, reference compound] | 890 (≈ 2330 µM) |  | 182 |  |
| CC(C)=CC1C(C(=O)OCc2ccc(Oc3ccccc3)o2)C1(C)C (centres unmarked) [5-Phenoxyfurfuryl chrysanthemate, reference compound] | 85 (≈ 250 µM) | 0.12 γ/larva |  |  |
| C#CCc1ccc(C(C#C)OC(=O)C2C(C=C(C)C)C2(C)C)o1 (stereo not drawn) [5-Propargyl-α-ethynylfurfuryl chrysanthemate, reference compound] | 260 (≈ 838 µM) |  |  | 120 |
| C=CC(C)=CC1C(C(=O)OCc2cccc(Cc3ccccc3)c2)C1(C)C (centres unmarked) [Present compound (4), 3-Benzylbenzyl 2',2'-dimethyl-3'-(2"-methyl-1",3"-butadienyl)-cyclopropanecarboxylate] | 110 (≈ 305 µM) | 0.71 γ/larva |  |  |
| C#CCc1ccc(COC(=O)C2C(C=C(C)C=C)C2(C)C)cc1 (centres unmarked) [Present compound (8), 4-Propargylbenzyl 2',2'-dimethyl-3'-(2"-methyl-1",3"-butadienyl)-cyclopropanecarboxylate] | 500 (≈ 1620 µM) | 0.37 γ/larva |  |  |
| C#CCc1ccc(C(C#C)OC(=O)C2C(C=C(C)C=C)C2(C)C)o1 (centres unmarked) [Present compound (20), 5-Propargylα-ethynylfurfuryl 2',2'-dimethyl-3'-(2"-methyl-1",3"-butadienyl)-cyclopropanecarboxylate] | 90 (≈ 279 µM) |  |  | 102 |
| C=CC(C)=CC1C(C(=O)OCN2C(=O)C3=C(CC=CC3)C2=O)C1(C)C (centres unmarked) [Present compound (30), 3,6-Dihydrophthalimidomethyl 2',2'-dimethyl-3'-(2"-methyl-1",3"-butadienyl)-cyclopropanecarboxylate] |  |  |  | 89 |
| C=CC(C)=CC1C(C(=O)OCN2C(=O)C(C)=C(C)C2=O)C1(C)C (centres unmarked) [Present compound (31), Dimethylmaleimidomethyl 2,2-dimethyl-3-(2'-methyl-1',3'-butadienyl)-cyclopropanecarboxylate] |  |  |  | 80 |
| C#CCc1ccc(COC(=O)C2C(C=C(C)C=CC)C2(C)C)o1 (centres unmarked) [Present compound (39), 5-Propargylfurfuryl 2',2'-dimethyl-3'-(2"-methyl-1",3"-pentadienyl)-cyclopropanecarboxylate] |  |  | 114 |  |
| C=CCC1=C(C)C(OC(=O)C2C(C=C(C)C=CC)C2(C)C)CC1=O (centres unmarked) [Present compound (42), 2-Allyl-3-methyl-2-cyclopentene-1-one-4-yl 2',2'-dimethyl-3'-(2"-methyl-1",3"-pentadienyl)-cyclopropanecarboxylate] |  |  | 165 |  |
| CC=CC(C)=CC1C(C(=O)OCN2C(=O)C3=C(CCCC3)C2=O)C1(C)C (centres unmarked) [Present compound (43), 3,4,5,6-Tetrahydrophthalimidomethyl 2',2'-dimethyl-3'-(2"-methyl-1",3"-pentadienyl)-cyclopropanecarboxylate] |  |  |  | 197 |
| C#CCc1ccc(COC(=O)C2C(C=C(C)C=C(C)C)C2(C)C)o1 (centres unmarked) [Present compound (45), 5-Propargylfurfuryl 2',2'-dimethyl-3'-(2",4"-dimethyl-1",3"-pentadienyl)-cyclopropanecarboxylate] |  |  | 117 |  |
| CC(C)=CC(C)=CC1C(C(=O)OCN2C(=O)C3=C(CCCC3)C2=O)C1(C)C (centres unmarked) [Present compound (49), 3,4,5,6-Tetrahydrophthalimidomethyl 2',2'-dimethyl-3'-(2",4"-dimethyl-1",3"-pentadienyl)-cyclopropanecarboxylate] |  |  |  | 86 |
| CC=C(C)C=CC1C(C(=O)OCc2coc(Cc3ccccc3)c2)C1(C)C (centres unmarked) [Present compound (56), 5-Benzyl-3-furylmethyl 2',2'-dimethyl-3'-(3"-methyl-1",3"-pentadienyl)-cyclopropanecarboxylate] |  |  | 150 |  |
| C=CC=CC1C(C(=O)OC(C#N)c2cccc(Cc3ccccc3)c2)C1(C)C (stereo not drawn) [Present compound (62), 3-Benzyl-α-cyanobenzyl 2',2'-dimethyl-3'-(1",3"-butadienyl)-cyclopropanecarboxylate] |  |  |  | 144 |
| C#CCc1ccc(COC(=O)C2C(C=CC=C)C2(C)C)o1 (centres unmarked) [Present compound (64), 5-Propargylfurfuryl 2',2'-dimethyl-3' -(1",3"-butadienyl)-cyclopropanecarboxylate] |  |  | 98 |  |
| C#CCc1ccc(C(C#C)OC(=O)C2C(C=CC=C)C2(C)C)o1 (stereo not drawn) [Present compound (78), 5-Propargyl-α-ethynylfurfuryl 2',2'-dimethyl-3'-(1",3"-butadienyl)-cyclopropanecarboxylate] | 82 (≈ 266 µM) |  |  | 93 |
| C#CCC1=C(C)C(OC(=O)C2C(C=CC=C)C2(C)C)CC1=O (centres unmarked) [Present compound (83), 2-Propargyl-3-methyl-2-cyclopentene-1-one-4-yl 2',2'-dimethyl-3'-(1",3"-butadienyl)-cyclopropanecarboxylate] |  |  |  | 183 |
| C=CC=CC1C(C(=O)OCN2C(=O)C3=C(CCCC3)C2=O)C1(C)C (centres unmarked) [Present compound (85), 3,4,5,6-Tetrahydrophthalimidomethyl 2',2'-dimethyl-3'-(1",3"-butadienyl)-cyclopropanecarboxylate] |  |  |  | 74 |
| C=CC=CC1C(C(=O)OCN2C(=O)c3ccccc3C2=S)C1(C)C (centres unmarked) [Present compound (87), Monothiophthalimidomethyl 2',2'-dimethyl-3'-(1",3"-butadienyl)-cyclopropanecarboxylate] |  |  | 177 |  |
| C=CC=CC1C(C(=O)OCN2C(=O)C3=C(CC=CC3)C2=O)C1(C)C (centres unmarked) [Present compound (88), 3,6-Dihydrophthalimidomethyl 2',2'-dimethyl-3'-(1",3"-butadienyl)-cyclopropanecarboxylate] |  |  |  | 79 |
| C=CC=CC1C(C(=O)OCN2C(=O)C(C)=C(C)C2=O)C1(C)C (centres unmarked) [Present compound (89), Dimethylmaleimidomethyl 2,2-dimethyl-3-(1',3'-butadienyl)-cyclopropanecarboxylate] |  |  |  | 72 |
